Structures are written as SMILES. Where only a bound is given, the exact number is not on record here.

What all share (assay type): biochemical
One test deals with T1, PI3K δ (Homo sapiens, UniProt O00329).
T1 construct: purchased Upstate
Nature of the test: PI3-kinase HTRF inhibition assay, PI3K δ. Particulars: in vitro. The protocol: (§1) Commercial kits or systems for assaying PI3-K activities are available. The commercially available kits or systems can be used to screen for inhibitors and/or agonists of PI3-Ks including but not limited to PI 3-Kinase α, β, δ, and γ. Anr exemplary system is PI 3-Kinase (human) HTRF™ Assay from Upstate. […] Briefly, the assay is a time resolved FRET assay that indirectly measures PIP3 product formed by the activity of a PI3-K. The kinase reaction is performed in a microtitre plate (e.g., a 384 well microtitre plate). The total reaction volume is approximately 20 ul per well. In the first step, each well receives 2 ul of test compound in 20% dimethylsulphoxide resulting in a 2% DMSO final concentration. Next, approximately 14.5 ul of a kinase/PIP2 mixture (diluted in 1× reaction buffer) is added per well for a final concentration of 0.25-0.3 ug/ml kinase and 10 μM PIP2. The plate is sealed and incubated for 15 minutes at room temperature. To start the reaction, 3.5 ul of ATP (diluted in 1× reaction buffer) is added per well for a final concentration of 10 μM ATP. The plate is sealed and incubated for 1 hour at room temperature. The reaction is stopped by adding 5ul of Stop Solution per well and then 5 ul of Detection Mix is added per well. The plate is sealed, incubated for 1 hour at room temperature, and then read on an appropriate plate reader. Data is analyzed and IC50s are generated using GraphPad Prism 5. For PI3K α, β, δ, and γ, the nM concentration of inhibitor to reach IC50 is provided Inhibition of PI3K a at lower concentrations than those for β, δ, and γ provides evidence of specificity within this group of kinases. Similar assays, and others known in the art, can be used to measure the percent inhibition of other kinases, including but not limited to PI3K class II kinases, phosphoinositide 4 kinases (PI4K), and phosphoinositide 5 kinases (PI5K).
On the technique in general: TR-FRET usually uses a lanthanide donor and a delayed reading to cut background.

The target in the next test is T2, PI3K β (Homo sapiens, UniProt P42338).
T2 construct: purchased Upstate
The test can be described thus: PI3-kinase HTRF inhibition assay, PI3K β. Particulars: in vitro. The protocol:
as §1

A further test concerns the target T3, PI3K γ (Homo sapiens, UniProt P48736).
T3 construct: purchased Upstate
Nature of the test: PI3-kinase HTRF inhibition assay, PI3K γ. Particulars: in vitro. The protocol: as §1

For another test, the target named is T4, PI3K α (Homo sapiens, UniProt P42336).
T4 construct: purchased Upstate
T4 sequence (P42336 whole entry): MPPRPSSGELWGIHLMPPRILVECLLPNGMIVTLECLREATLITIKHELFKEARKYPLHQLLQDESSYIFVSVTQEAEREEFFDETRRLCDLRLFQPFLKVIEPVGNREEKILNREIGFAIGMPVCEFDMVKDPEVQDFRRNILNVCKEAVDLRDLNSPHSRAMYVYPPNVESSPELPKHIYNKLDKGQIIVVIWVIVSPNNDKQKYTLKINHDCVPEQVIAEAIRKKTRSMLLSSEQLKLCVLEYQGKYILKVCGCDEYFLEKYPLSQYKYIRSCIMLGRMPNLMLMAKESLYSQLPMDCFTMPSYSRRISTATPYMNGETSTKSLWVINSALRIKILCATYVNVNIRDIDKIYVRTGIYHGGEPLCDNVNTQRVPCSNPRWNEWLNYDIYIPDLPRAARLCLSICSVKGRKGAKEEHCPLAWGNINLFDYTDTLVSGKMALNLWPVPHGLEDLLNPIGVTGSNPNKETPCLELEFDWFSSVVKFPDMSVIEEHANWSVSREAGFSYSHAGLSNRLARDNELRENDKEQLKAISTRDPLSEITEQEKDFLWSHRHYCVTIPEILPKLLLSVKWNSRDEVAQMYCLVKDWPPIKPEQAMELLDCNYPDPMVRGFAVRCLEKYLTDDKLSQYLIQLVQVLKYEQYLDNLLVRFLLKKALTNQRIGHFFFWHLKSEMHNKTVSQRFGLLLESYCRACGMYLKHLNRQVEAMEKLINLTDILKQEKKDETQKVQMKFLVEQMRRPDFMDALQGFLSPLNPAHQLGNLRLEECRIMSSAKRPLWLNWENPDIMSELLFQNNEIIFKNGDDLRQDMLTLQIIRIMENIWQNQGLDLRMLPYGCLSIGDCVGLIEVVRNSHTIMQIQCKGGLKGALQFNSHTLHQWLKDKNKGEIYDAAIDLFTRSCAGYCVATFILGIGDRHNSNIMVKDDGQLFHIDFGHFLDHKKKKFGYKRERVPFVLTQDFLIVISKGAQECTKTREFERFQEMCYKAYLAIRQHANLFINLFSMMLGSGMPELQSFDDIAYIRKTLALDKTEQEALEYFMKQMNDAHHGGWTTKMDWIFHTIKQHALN
T4 sequence (P27986 whole entry partner): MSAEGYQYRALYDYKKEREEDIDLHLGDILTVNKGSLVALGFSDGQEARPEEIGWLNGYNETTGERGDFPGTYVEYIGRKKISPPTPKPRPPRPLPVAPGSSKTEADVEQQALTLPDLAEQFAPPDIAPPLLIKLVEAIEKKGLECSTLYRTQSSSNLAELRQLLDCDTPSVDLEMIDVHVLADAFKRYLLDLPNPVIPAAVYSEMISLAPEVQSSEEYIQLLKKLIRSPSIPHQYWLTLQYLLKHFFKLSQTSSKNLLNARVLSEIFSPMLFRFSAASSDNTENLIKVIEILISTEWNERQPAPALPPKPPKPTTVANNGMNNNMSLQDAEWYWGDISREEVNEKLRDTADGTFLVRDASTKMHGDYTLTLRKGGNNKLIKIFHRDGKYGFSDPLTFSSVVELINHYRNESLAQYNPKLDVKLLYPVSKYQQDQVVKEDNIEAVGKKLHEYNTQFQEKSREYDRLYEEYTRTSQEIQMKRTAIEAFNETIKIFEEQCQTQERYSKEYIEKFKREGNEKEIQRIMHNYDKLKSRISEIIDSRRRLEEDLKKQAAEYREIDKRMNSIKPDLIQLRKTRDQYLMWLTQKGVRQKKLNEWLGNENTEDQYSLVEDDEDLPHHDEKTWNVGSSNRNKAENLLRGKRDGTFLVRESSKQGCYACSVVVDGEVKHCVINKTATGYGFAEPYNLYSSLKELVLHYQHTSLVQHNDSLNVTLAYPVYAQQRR
Nature of the test: PI3-kinase HTRF inhibition assay, PI3K α. Particulars: in vitro. The protocol:
as §1

Another test addresses T5, mTORC (Homo sapiens, UniProt P42345).
T5 construct: purchased Invitrogen
Nature of the test: mTOR inhibition assay (in vitro IC50). The protocol:
The cross-activity or lack thereof of one or more compounds of the present invention against mTor can be measured according to any procedures known in the art or methods disclosed below. The compounds described herein can be tested against recombinant mTOR (Invitrogen) in an assay containing 50 mM HEPES, pH 7.5, 1 mM EGTA, 10 mM MgCl2, 2.5 mM, 0.01% Tween, 10 μM ATP (2.5 μCi of […]), and 3 μg/mL BSA. Rat recombinant PHAS-1/4EBP1 (Calbiochem; 2 mg/mL) is used as a substrate. Reactions are terminated by spotting onto nitrocellulose, which is washed with 1M NaCl/1% phosphoric acid (approximately 6 times, 5-10 minutes each). Sheets are dried and the transferred radioactivity quantitated by phosphorimaging.
Other kits or systems for assaying mTOR activity are commercially available. For instance, one can use Invitrogen's LanthaScreen™ Kinase assay to test the inhibitors of mTOR disclosed herein. This assay is a time resolved FRET platform that measures the phosphorylation of GFP labeled 4EBP1 by mTOR kinase. The kinase reaction is performed in a white 384 well microtitre plate. The total reaction volume is 20 ul per well and the reaction buffer composition is 50 mM HEPES pH7.5, 0.01% Polysorbate 20, 1 mM EGTA, 10 mM MnCl2, and 2 mM DTT. In the first step, each well receives 2 ul of test compound in 20% dimethylsulphoxide resulting in a 2% DMSO final concentration. Next, 8 ul of mTOR diluted in reaction buffer is added per well for a 60 ng/ml final concentration. To start the reaction, 10 ul of an ATP/GFP-4EBP1 mixture (diluted in reaction buffer) is added per well for a final concentration of 10 μM ATP and 0.5 μM GFP-4EBP1. The plate is sealed and incubated for 1 hour at room temperature. The reaction is stopped by adding 10 ul per well of a Tb-anti-pT46 4EBP1 antibody/EDTA mixture (diluted in TR-FRET buffer) for a final concentration of 1.3 nM antibody and 6.7 mM EDTA. The plate is sealed, incubated for 1 hour at room temperature, and then read on a plate reader set up for LanthaScreen™ TR-FRET. Data is analyzed and IC50s are generated using GraphPad Prism 5.

T1 sequence (O00329 whole entry): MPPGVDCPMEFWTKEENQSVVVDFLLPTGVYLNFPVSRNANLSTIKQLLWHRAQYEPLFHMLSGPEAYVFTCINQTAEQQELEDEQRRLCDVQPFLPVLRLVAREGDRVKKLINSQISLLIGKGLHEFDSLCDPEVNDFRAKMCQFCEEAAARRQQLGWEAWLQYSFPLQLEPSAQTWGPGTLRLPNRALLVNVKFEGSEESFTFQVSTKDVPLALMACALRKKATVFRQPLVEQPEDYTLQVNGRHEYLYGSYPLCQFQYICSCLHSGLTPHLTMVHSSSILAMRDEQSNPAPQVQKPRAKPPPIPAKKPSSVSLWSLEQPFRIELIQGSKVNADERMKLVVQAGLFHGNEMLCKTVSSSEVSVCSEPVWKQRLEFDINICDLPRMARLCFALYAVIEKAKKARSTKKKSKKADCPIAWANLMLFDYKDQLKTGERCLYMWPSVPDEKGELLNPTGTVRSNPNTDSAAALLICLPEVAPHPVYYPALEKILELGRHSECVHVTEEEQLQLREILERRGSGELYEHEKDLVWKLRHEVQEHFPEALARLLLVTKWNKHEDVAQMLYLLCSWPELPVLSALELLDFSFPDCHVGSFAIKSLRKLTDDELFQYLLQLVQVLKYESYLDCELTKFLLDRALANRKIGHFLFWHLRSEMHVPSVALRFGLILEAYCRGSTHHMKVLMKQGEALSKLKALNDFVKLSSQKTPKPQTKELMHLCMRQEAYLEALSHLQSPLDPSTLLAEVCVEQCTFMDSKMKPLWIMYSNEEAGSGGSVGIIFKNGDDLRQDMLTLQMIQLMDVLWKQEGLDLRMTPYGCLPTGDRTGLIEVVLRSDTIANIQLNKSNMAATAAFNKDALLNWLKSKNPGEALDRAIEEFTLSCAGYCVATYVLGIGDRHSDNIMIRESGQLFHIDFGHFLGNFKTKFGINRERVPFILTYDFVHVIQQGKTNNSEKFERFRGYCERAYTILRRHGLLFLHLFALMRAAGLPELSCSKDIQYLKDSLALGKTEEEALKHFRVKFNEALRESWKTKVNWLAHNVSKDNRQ
T1 sequence (P27986 whole entry partner): as the sequence (P27986 whole entry partner) above
T5 sequence (P42345 1360-2549 limits assumed): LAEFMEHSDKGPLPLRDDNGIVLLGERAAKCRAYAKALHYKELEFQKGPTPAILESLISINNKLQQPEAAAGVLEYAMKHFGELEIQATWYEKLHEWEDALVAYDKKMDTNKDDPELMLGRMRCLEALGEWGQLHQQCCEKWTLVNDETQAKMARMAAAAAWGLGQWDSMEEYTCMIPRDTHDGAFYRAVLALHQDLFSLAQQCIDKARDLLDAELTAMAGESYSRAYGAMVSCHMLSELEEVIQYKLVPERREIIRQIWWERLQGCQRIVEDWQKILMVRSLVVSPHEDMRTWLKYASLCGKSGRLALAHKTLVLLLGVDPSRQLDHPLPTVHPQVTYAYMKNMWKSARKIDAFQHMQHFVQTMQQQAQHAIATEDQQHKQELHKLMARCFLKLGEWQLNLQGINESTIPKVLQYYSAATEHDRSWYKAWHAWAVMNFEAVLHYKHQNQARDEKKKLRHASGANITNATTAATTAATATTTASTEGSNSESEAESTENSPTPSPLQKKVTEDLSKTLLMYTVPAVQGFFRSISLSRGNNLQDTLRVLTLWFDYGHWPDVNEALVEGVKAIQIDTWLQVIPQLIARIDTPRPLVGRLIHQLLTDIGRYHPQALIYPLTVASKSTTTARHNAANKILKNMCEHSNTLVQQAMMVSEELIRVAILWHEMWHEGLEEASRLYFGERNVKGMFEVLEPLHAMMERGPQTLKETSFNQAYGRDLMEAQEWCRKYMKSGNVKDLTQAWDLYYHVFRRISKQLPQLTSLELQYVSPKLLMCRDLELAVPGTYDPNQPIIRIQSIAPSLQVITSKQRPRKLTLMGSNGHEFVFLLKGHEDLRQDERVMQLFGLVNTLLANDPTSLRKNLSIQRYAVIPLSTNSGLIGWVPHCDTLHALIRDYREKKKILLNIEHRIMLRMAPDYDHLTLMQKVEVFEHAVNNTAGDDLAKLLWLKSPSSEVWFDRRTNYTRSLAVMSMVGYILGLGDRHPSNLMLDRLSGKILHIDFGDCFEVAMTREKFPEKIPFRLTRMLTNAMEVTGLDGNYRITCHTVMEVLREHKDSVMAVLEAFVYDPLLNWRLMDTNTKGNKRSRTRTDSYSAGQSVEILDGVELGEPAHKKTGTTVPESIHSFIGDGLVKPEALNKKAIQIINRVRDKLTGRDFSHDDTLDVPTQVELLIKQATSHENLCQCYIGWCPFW

Consider `Cc1ncc(-c2ccc3ncc(C(=O)N4CCOCC4)n3c2)c2cn[nH]c12` [Compound 1], for which the IC50 against PI3K δ is less than 10 µM; against PI3K β, greater than 10 µM; at PI3K γ it was greater than 10 µM; at PI3K α it was less than 0.1 µM.
As for `[2H]c1c(-c2ccc3ncc(C(=O)N4CCOCC4)n3c2)c([2H])c2nc(N)oc2c1[2H]` [Compound 2], the IC50 at PI3K δ is greater than 10 µM; on PI3K β it was less than 10 µM; at PI3K γ it was less than 0.1 µM; on PI3K α it was less than 0.1 µM.
With `O=C(c1cnc2ccc(-c3ccnc4[nH]ncc34)cn12)N1CCOCC1` [Compound 3], the half-maximal inhibitory concentration (IC50) against PI3K δ is greater than 10 µM; against PI3K β, greater than 10 µM; against PI3K γ, greater than 10 µM; on PI3K α, less than 10 µM; at mTORC it was greater than 10 µM.
On to `CN1CC2CN(C(=O)c3cnc4ccc(-c5ccc6oc(N)nc6c5)cn34)CC2C1` (stereo not shown) [Compound 4], for which the IC50 against PI3K δ is less than 1 µM; against PI3K β, less than 1 µM; against PI3K γ, less than 1 µM; against PI3K α it was less than 0.1 µM; at mTORC, greater than 10 µM.
For the molecule `O=C(c1cnc2ccc(-c3cnc4cc[nH]c4c3)cn12)N1CCOCC1` [Compound 5], the 50% inhibitory concentration (IC50) at PI3K δ was greater than 10 µM; at PI3K β, greater than 10 µM; against PI3K γ it was greater than 10 µM; on PI3K α, less than 10 µM.
In the case of `O=C(c1cnc2ccc(-c3cnc4cn[nH]c4c3)cn12)N1CCOCC1` [Compound 6], the IC50 at PI3K δ, against PI3K β and at PI3K γ was greater than 10 µM in each case.
Consider `Cc1ncc(-c2ccc3ncc(C(=O)N4CCOCC4)n3c2)c2cc[nH]c12` [Compound 7], for which the IC50 on PI3K δ is greater than 10 µM; against PI3K β, greater than 10 µM; against PI3K γ, greater than 10 µM; against PI3K α, less than 10 µM.
`Cn1ncc2c(-c3ccc4ncc(C(=O)N5CCOCC5)n4c3)cncc21` [Compound 8]: the IC50 against PI3K δ was greater than 10 µM; at PI3K β, greater than 10 µM; against PI3K γ it was less than 10 µM; on PI3K α, less than 10 µM.
Turning to `Cc1ncc(-c2ccc3ncc(C(=O)N4C5CCC4COC5)n3c2)c2cn[nH]c12` [Compound 9], the IC50 against PI3K δ is less than 10 µM; on PI3K β, greater than 10 µM; at PI3K γ, greater than 10 µM; against PI3K α it was less than 0.1 µM; against mTORC, greater than 10 µM.
Consider `O=C(c1cnc2ccc(-c3cncc4c3cnn4CCO)cn12)N1CCOCC1` [Compound 10], for which the IC50 against PI3K δ, at PI3K β, against PI3K γ and at PI3K α was greater than 10 µM throughout.
Turning to `Nc1nc2cc(-c3cnc4ccc(C(=O)N5C6CCC5COC6)cn34)ccc2o1` [Compound 11], the IC50 on PI3K δ, against PI3K β, against PI3K γ and at PI3K α was greater than 10 µM throughout.
For `Nc1nc2cc(-c3cnc4ccc(C(=O)N5CCOCC5)cn34)ccc2o1` [Compound 12], the concentration for half-maximal inhibition (IC50) against PI3K δ, against PI3K β and against PI3K α was greater than 10 µM each time.
For the molecule `CN1CCN(c2nnc3ccc(-c4ccc5nc(N)oc5c4)cn23)CC1` [Compound 13], the IC50 against PI3K δ, against PI3K β, on PI3K γ and at PI3K α was greater than 10 µM throughout.
Turning to `Cc1cc(-c2ccc3nc(N)oc3c2)cn2c(-c3ccncc3)nnc12` [Compound 14], the half-inhibitory concentration (IC50) at PI3K δ is greater than 10 µM; against PI3K β it was less than 10 µM; against PI3K γ it was greater than 10 µM; against PI3K α, greater than 10 µM.
Turning to `Nc1nc2ccc(-c3ccc4ncc(C(=O)N5CCOCC5)n4c3)cc2[nH]1` [Compound 15], the IC50 at PI3K δ was greater than 10 µM; against PI3K β, greater than 10 µM; at PI3K γ it was greater than 10 µM; at PI3K α, less than 1 µM.
For the molecule `CN1CCN(CCc2nnc3ccc(-c4ccc5nc(N)oc5c4)cn23)CC1` [Compound 16], the IC50 on PI3K δ, against PI3K β, on PI3K γ and against PI3K α was greater than 10 µM each time.
With `Cc1cc(-c2ccc3nc(N)oc3c2)cn2c(N3CCN(C)CC3)nnc12` [Compound 17], the IC50 against PI3K δ, against PI3K β, against PI3K γ and against PI3K α was greater than 10 µM each time.
`CN1CCN(Cc2nnc3ccc(-c4ccc5nc(N)oc5c4)cn23)CC1` [Compound 18]: the IC50 against PI3K δ, at PI3K β, against PI3K γ and on PI3K α was greater than 10 µM throughout.
Take `Cc1cc(-c2ccc3nc(N)oc3c2)cn2c(CCN3CCN(C)CC3)nnc12` [Compound 19]: the IC50 against PI3K δ, against PI3K β, at PI3K γ and against PI3K α was greater than 10 µM in each case.
Consider `Cc1cc(-c2ccc3nc(N)oc3c2)cn2c(CN3CCN(C)CC3)nnc12` [Compound 20], for which the IC50 at PI3K δ, against PI3K β, against PI3K γ and against PI3K α was greater than 10 µM each time.
For the molecule `Nc1nc2cc(-c3ccc4ncc(C(=O)NCCOCCO)n4c3)ccc2o1` [Compound 21], the IC50 on PI3K δ was less than 10 µM; against PI3K β, less than 10 µM; against PI3K γ, less than 1 µM; against PI3K α it was less than 1 µM.
For the molecule `Nc1nc2cc(-c3ccc4ncc(C(=O)NCCOCC(=O)O)n4c3)ccc2o1` [Compound 22], the IC50 was less than 1 µM against PI3K β, less than 0.1 µM at PI3K γ and less than 0.1 µM on PI3K α.

What is called IC50 is the concentration needed to halve the response being measured. High values mean weaker potency, low ones greater potency.

(Values after patent publication US9127000B2, “Heterocyclic compounds and uses thereof” (Intellikine, LLC., priority 2011, dated 2015).)
